In US20260176320A1, “MODULATORS OF G-PROTEIN COUPLED RECEPTORS” (priority 2018, published 2026):
Where two headings read alike, the source gives them in different places.

Experiments:
Assay type in all cases: cell-based
GLP-1R [1] = biological target: T1, GLP-1R (Homo sapiens, UniProt P43220); assay: PathHunter β-arrestin assay
In short: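 Cells (5,000/well) plated overnight, then exposed to a 22-point 2-fold agonist dilution series in medium with 0.2% BSA for 90 min at 37 °C, 5% CO2. PathHunter detection reagent added; after 3 h at room temperature in the dark, luminescence read.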

GIP-R = biological target: T2, GIP-R (Homo sapiens, UniProt P48546); assay: HitHunter cAMP assay (GIP-R); settings: cAMP; for Emax: read-out: (Emax) GIP-R
T2 sequence (P48546 22-466): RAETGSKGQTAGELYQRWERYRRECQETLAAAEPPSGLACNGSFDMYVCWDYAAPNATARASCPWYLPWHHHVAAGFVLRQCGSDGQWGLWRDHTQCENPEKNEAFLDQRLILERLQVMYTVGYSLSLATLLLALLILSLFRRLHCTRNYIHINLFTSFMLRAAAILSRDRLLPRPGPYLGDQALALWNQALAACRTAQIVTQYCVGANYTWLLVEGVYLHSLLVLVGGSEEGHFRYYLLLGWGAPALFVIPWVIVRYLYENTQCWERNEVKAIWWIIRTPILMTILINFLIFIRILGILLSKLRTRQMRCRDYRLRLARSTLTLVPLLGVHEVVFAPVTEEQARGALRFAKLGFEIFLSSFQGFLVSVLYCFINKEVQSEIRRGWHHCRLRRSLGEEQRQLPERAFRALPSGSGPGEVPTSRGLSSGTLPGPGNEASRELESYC
In short: (§1)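 Suspension cells (10,000/well) in HBSS with 10 mM HEPES, 625 μM IBMX, 0.2% BSA exposed to 22-point 2-fold agonist series in duplicate for 30 min at room temperature. cAMP measured by antibody immunocompetition with overnight development, luminescence read-out.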

GLP-1R [2] = biological target: T1, GLP-1R; assay: HitHunter cAMP assay (GLP-1R); settings: cAMP; for Emax: read-out: (Emax) GLP-1R
In short: as §1

[3] = PathHunter β-arrestin assay, read-out: β-arrestin activity EC50
[4] = Table 3, read-out: EC50 GIP-R/nM
[5] = Table 3A, read-out: EC50 GIP-R/nM
[6] = Table 3, read-out: EC50 GLP-1R/nM
[7] = Table 3A, read-out: EC50 GLP-1R/nM

T1 sequence (P43220 24-463): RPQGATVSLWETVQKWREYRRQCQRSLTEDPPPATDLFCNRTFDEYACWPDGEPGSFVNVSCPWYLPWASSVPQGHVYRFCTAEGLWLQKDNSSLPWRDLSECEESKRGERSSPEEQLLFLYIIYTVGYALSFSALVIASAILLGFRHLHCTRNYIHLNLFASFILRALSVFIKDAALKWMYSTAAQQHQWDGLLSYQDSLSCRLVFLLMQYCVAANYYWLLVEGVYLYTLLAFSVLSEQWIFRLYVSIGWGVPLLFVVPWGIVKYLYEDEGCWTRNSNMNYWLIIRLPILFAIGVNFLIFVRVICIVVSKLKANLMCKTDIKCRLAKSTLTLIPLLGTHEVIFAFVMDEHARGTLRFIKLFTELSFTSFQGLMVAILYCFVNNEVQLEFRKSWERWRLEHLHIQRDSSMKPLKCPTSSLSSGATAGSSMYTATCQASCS

Q: Which EC50 (GLP-1R [1]; [3]) does the source give for CC[C@H](C)[C@H](NC(=O)[C@H](CO)NC(=O)[C@H](Cc1ccc(O)cc1)NC(=O)[C@H](CC(=O)O)NC(=O)[C@H](CO)NC(=O)[C@@H](NC(=O)[C@H](Cc1ccccc1)NC(=O)[C@@H](NC(=O)CNC(=O)[C@H](CCC(=O)O)NC(=O)CCC(=O)NCCN1C(=O)CSC1=O)[C@@H](C)O)[C@@H](C)O)C(=O)N[C@@H](Cc1ccc(O)cc1)C(=O)N[C@@H](CC(C)C)C(=O)N[C@@H](CC(=O)O)C(=O)N[C@@H](CCCCN)C(=O)N[C@@H](CCC(N)=O)C(=O)N[C@@H](C)C(=O)N[C@@H](C)C(=O)NC(C)(C)C(=O)N[C@@H](CCC(=O)O)C(=O)N[C@@H](Cc1ccccc1)C(=O)N[C@H](C(=O)N[C@@H](CC(N)=O)C(=O)N[C@@H](Cc1c[nH]c2ccccc12)C(=O)N[C@@H](CC(C)C)C(=O)N[C@@H](CC(C)C)C(=O)N[C@@H](C)C(=O)NCC(=O)NCC(=O)N1CCC[C@H]1C(=O)N[C@@H](CO)C(=O)N[C@@H](CO)C(=O)NCC(=O)N[C@@H](C)C(=O)N1CCC[C@H]1C(=O)N1CCC[C@H]1C(=O)N1CCC[C@H]1C(=O)N[C@@H](CO)C(=O)N[C@@H](CCCCN)C(N)=O)C(C)C [Compound 192] here?
A: > 1000 nM

Q: And the Emax (GIP-R; Table 3)?
A: 63%

Q: What about the EC50 (GIP-R; [4]) of the same compound?
A: 10 to 100 nM

Q: What about the Emax (GIP-R; Table 3A) of the same compound?
A: 63%

Q: What about the EC50 (GIP-R; [5]) of the same compound?
A: 10 to 100 nM

Q: What about the Emax (GLP-1R [2]; Table 3) of the same compound?
A: 111%

Q: What about the EC50 (GLP-1R [2]; [6]) of the same compound?
A: 0.1 to 1 nM

Q: And the Emax (GLP-1R [2]; Table 3A)?
A: 111%

Q: And the EC50 (GLP-1R [2]; [7])?
A: 0.1 to 1 nM

Q: For CCCCCCCCCCCCCCCC(=O)N[C@@H](CCC(=O)NCCCC[C@H](NC(=O)[C@H](CO)NC(=O)[C@@H]1CCCN1C(=O)[C@@H]1CCCN1C(=O)[C@@H]1CCCN1C(=O)[C@H](C)NC(=O)CNC(=O)[C@H](CO)NC(=O)[C@H](CO)NC(=O)[C@@H]1CCCN1C(=O)CNC(=O)CNC(=O)[C@H](C)NC(=O)[C@H](CC(C)C)NC(=O)[C@H](CC(C)C)NC(=O)[C@H](Cc1c[nH]c2ccccc12)NC(=O)[C@H](CC(N)=O)NC(=O)[C@@H](NC(=O)[C@H](Cc1ccccc1)NC(=O)[C@H](CCC(=O)O)NC(=O)C(C)(C)NC(=O)[C@H](C)NC(=O)[C@H](C)NC(=O)[C@H](CCC(N)=O)NC(=O)[C@H](CCCCN)NC(=O)[C@H](CC(=O)O)NC(=O)[C@H](CC(C)C)NC(=O)[C@H](Cc1ccc(O)cc1)NC(=O)[C@@H](NC(=O)[C@H](CO)NC(=O)[C@H](Cc1ccc(O)cc1)NC(=O)[C@H](CC(=O)O)NC(=O)[C@H](CO)NC(=O)[C@@H](NC(=O)[C@H](Cc1ccccc1)NC(=O)[C@@H](NC(=O)CNC(=O)[C@H](CCC(=O)O)NC(=O)CSCC(=O)N(C)CCN1CCCCC1=O)[C@@H](C)O)[C@@H](C)O)[C@@H](C)CC)C(C)C)C(N)=O)C(=O)O [Compound 17], which EC50 (GLP-1R [1]) is on record?
A: > 1000 nM

Q: What about the EC50 (GIP-R; EC50 GIP-R/nM, Table 3) of the same compound?
A: 1 to 10 nM

Q: And the EC50 (GIP-R; EC50 GIP-R/nM, Table 3A)?
A: 1 to 10 nM

Q: What about the Emax (GIP-R; Table 3) of the same compound?
A: 55%

Q: What about the Emax (GIP-R; Table 3A) of the same compound?
A: 55%

Q: What about the EC50 (GLP-1R [2]; EC50 GLP-1R/nM, Table 3) of the same compound?
A: 0.1 to 1 nM

Q: And the EC50 (GLP-1R [2]; EC50 GLP-1R/nM, Table 3A)?
A: 0.1 to 1 nM

Q: And the Emax (GLP-1R [2]; Table 3)?
A: 92%

Q: And the Emax (GLP-1R [2]; Table 3A)?
A: 92%

Q: Which EC50 (GLP-1R [1]; [3]) does the source give for CC[C@H](C)[C@H](NC(=O)[C@H](CO)NC(=O)[C@H](Cc1ccc(O)cc1)NC(=O)[C@H](CC(=O)O)NC(=O)[C@H](CO)NC(=O)[C@@H](NC(=O)[C@H](Cc1ccccc1)NC(=O)[C@@H](NC(=O)CNC(=O)[C@H](CCC(=O)O)NC(=O)COCC(=O)NCCN1C(=O)CSC1=O)[C@@H](C)O)[C@@H](C)O)C(=O)N[C@@H](Cc1ccc(O)cc1)C(=O)N[C@@H](CC(C)C)C(=O)N[C@@H](CC(=O)O)C(=O)N[C@@H](CCCCN)C(=O)N[C@@H](CCC(N)=O)C(=O)N[C@@H](C)C(=O)N[C@@H](C)C(=O)NC(C)(C)C(=O)N[C@@H](CCC(=O)O)C(=O)N[C@@H](Cc1ccccc1)C(=O)N[C@H](C(=O)N[C@@H](CC(N)=O)C(=O)N[C@@H](Cc1c[nH]c2ccccc12)C(=O)N[C@@H](CC(C)C)C(=O)N[C@@H](CC(C)C)C(=O)N[C@@H](C)C(=O)NCC(=O)NCC(=O)N1CCC[C@H]1C(=O)N[C@@H](CO)C(=O)N[C@@H](CO)C(=O)NCC(=O)N[C@@H](C)C(=O)N1CCC[C@H]1C(=O)N1CCC[C@H]1C(=O)N1CCC[C@H]1C(=O)N[C@@H](CO)C(=O)N[C@@H](CCCCN)C(N)=O)C(C)C [Compound 194] here?
A: > 1000 nM

Q: What about the EC50 (GIP-R; [4]) of the same compound?
A: > 1000 nM

Q: What about the EC50 (GIP-R; [5]) of the same compound?
A: > 1000 nM

Q: What about the Emax at 1 µM (GIP-R; read-out: (Emax) GIP-R at 1 μM, Table 3, at 1 μM) of the same compound?
A: 12%

Q: What about the Emax (GLP-1R [2]; Table 3) of the same compound?
A: 98%

Q: And the EC50 (GLP-1R [2]; [6])?
A: 1 to 10 nM

Q: What about the Emax (GLP-1R [2]; Table 3A) of the same compound?
A: 98%

Q: What about the EC50 (GLP-1R [2]; [7]) of the same compound?
A: 1 to 10 nM

Q: For CC[C@H](C)[C@H](NC(=O)[C@H](CO)NC(=O)[C@H](Cc1ccc(O)cc1)NC(=O)[C@H](CC(=O)O)NC(=O)[C@H](CO)NC(=O)[C@@H](NC(=O)[C@H](Cc1ccccc1)NC(=O)[C@@H](NC(=O)CNC(=O)[C@H](CCC(=O)O)NC(=O)C(C)(C)C(=O)NCCCN1C(=O)c2ccccc2C1=O)[C@@H](C)O)[C@@H](C)O)C(=O)N[C@@H](Cc1ccc(O)cc1)C(=O)N[C@@H](CC(C)C)C(=O)N[C@@H](CC(=O)O)C(=O)N[C@@H](CCCCN)C(=O)N[C@@H](CCC(N)=O)C(=O)N[C@@H](C)C(=O)N[C@@H](C)C(=O)NC(C)(C)C(=O)N[C@@H](CCC(=O)O)C(=O)N[C@@H](Cc1ccccc1)C(=O)N[C@H](C(=O)N[C@@H](CC(N)=O)C(=O)N[C@@H](Cc1c[nH]c2ccccc12)C(=O)N[C@@H](CC(C)C)C(=O)N[C@@H](CC(C)C)C(=O)N[C@@H](C)C(=O)NCC(=O)NCC(=O)N1CCC[C@H]1C(=O)N[C@@H](CO)C(=O)N[C@@H](CO)C(=O)NCC(=O)N[C@@H](C)C(=O)N1CCC[C@H]1C(=O)N1CCC[C@H]1C(=O)N1CCC[C@H]1C(=O)N[C@@H](CO)C(=O)N[C@@H](CCCCN)C(N)=O)C(C)C [Compound 143], which EC50 (GLP-1R [1]; [3]) is on record?
A: > 1000 nM

Q: What about the Emax (GIP-R; Table 3) of the same compound?
A: 99 to 107%

Q: And the EC50 (GIP-R; [4])?
A: 1 to 10 nM

Q: And the Emax (GIP-R; Table 3A)?
A: 99 to 107%

Q: What about the EC50 (GIP-R; [5]) of the same compound?
A: 1 to 10 nM

Q: And the Emax (GLP-1R [2]; Table 3)?
A: 99 to 108%

Q: What about the EC50 (GLP-1R [2]; [6]) of the same compound?
A: 0.1 to 1 nM

Q: And the Emax (GLP-1R [2]; Table 3A)?
A: 99 to 108%

Q: And the EC50 (GLP-1R [2]; [7])?
A: 0.1 to 1 nM

Q: For CC[C@H](C)[C@H](NC(=O)[C@H](CO)NC(=O)[C@H](Cc1ccc(O)cc1)NC(=O)[C@H](CC(=O)O)NC(=O)[C@H](CO)NC(=O)[C@@H](NC(=O)[C@H](Cc1ccccc1)NC(=O)[C@@H](NC(=O)CNC(=O)[C@H](CCC(=O)O)NC(=O)CSCC(=O)NCCN1C(=O)c2ccc(Cl)cc2C1=O)[C@@H](C)O)[C@@H](C)O)C(=O)N[C@@H](Cc1ccc(O)cc1)C(=O)N[C@@H](CC(C)C)C(=O)N[C@@H](CC(=O)O)C(=O)N[C@@H](CCCCN)C(=O)N[C@@H](CCC(N)=O)C(=O)N[C@@H](C)C(=O)N[C@@H](C)C(=O)NC(C)(C)C(=O)N[C@@H](CCC(=O)O)C(=O)N[C@@H](Cc1ccccc1)C(=O)N[C@H](C(=O)N[C@@H](CC(N)=O)C(=O)N[C@@H](Cc1c[nH]c2ccccc12)C(=O)N[C@@H](CC(C)C)C(=O)N[C@@H](CC(C)C)C(=O)N[C@@H](C)C(=O)NCC(=O)NCC(=O)N1CCC[C@H]1C(=O)N[C@@H](CO)C(=O)N[C@@H](CO)C(=O)NCC(=O)N[C@@H](C)C(=O)N1CCC[C@H]1C(=O)N1CCC[C@H]1C(=O)N1CCC[C@H]1C(=O)N[C@@H](CO)C(=O)N[C@@H](CCCCN)C(N)=O)C(C)C [Compound 161], which EC50 (GLP-1R [1]) is on record?
A: > 1000 nM

Q: And the Emax (GIP-R; Table 3)?
A: 58 to 107%

Q: What about the Emax (GIP-R; Table 3A) of the same compound?
A: 58 to 107%

Q: And the EC50 (GIP-R; read-out: EC50 GIP-R/nM, Table 3)?
A: 1 to 100 nM

Q: And the EC50 (GIP-R; read-out: EC50 GIP-R/nM, Table 3A)?
A: 1 to 100 nM

Q: What about the EC50 (GLP-1R [2]; EC50 GLP-1R/nM, Table 3) of the same compound?
A: 10 to 100 nM

Q: And the EC50 (GLP-1R [2]; EC50 GLP-1R/nM, Table 3A)?
A: 10 to 100 nM

Q: And the Emax (GLP-1R [2]; Table 3)?
A: 89 to 101%

Q: And the Emax (GLP-1R [2]; Table 3A)?
A: 89 to 101%
